Measurements: the NIST ThermoML archive (doi:10.1021/je800110r)
Several values for one entry are separate records, joined by “and”; a condition that tells them apart may be missing. Identical values can stand only once.

Conditions: 293.15 K, Liquid, Vibrating tube method

CCCCCCCCCC [decane]
Conditions | mass density
375 kPa | 730.1 kg/m3
394 kPa | 730.1 kg/m3
411 kPa | 730.1 kg/m3
427 kPa | 730.1 kg/m3
448 kPa | 730.1 kg/m3
469 kPa | 730.1 kg/m3
487 kPa | 730.1 kg/m3
510 kPa | 730.2 kg/m3
528 kPa | 730.3 kg/m3
551 kPa | 730.3 kg/m3
571 kPa | 730.3 kg/m3
605 kPa | 730.4 kg/m3
692 kPa | 730.3 kg/m3
760 kPa | 730.4 kg/m3
843 kPa | 730.5 kg/m3
898 kPa | 730.6 kg/m3
949 kPa | 730.5 kg/m3
998 kPa | 730.6 kg/m3
1057 kPa | 730.6 kg/m3
1102 kPa | 730.7 kg/m3
1141 kPa | 730.7 kg/m3
1165 kPa | 730.8 kg/m3
1196 kPa | 730.7 kg/m3
1214 kPa | 730.7 kg/m3
1243 kPa | 730.8 kg/m3
1266 kPa | 730.8 kg/m3
1302 kPa | 730.9 kg/m3
1332 kPa | 730.8 kg/m3
1362 kPa | 730.9 kg/m3
1397 kPa | 730.9 kg/m3
1430 kPa | 730.9 kg/m3
1459 kPa | 730.9 kg/m3
1493 kPa | 731 kg/m3
1535 kPa | 731.1 kg/m3
1567 kPa | 731.1 kg/m3
1623 kPa | 731 kg/m3
1669 kPa | 731.1 kg/m3
1712 kPa | 731.2 kg/m3
1762 kPa | 731.3 kg/m3
1802 kPa | 731.2 kg/m3
1843 kPa | 731.3 kg/m3
1915 kPa | 731.4 kg/m3
1974 kPa | 731.3 kg/m3
2021 kPa | 731.5 kg/m3
2094 kPa | 731.4 kg/m3
2187 kPa | 731.5 kg/m3
2240 kPa | 731.6 kg/m3
2295 kPa | 731.6 kg/m3
2363 kPa | 731.7 kg/m3
2423 kPa | 731.7 kg/m3
2496 kPa | 731.7 kg/m3
2561 kPa | 731.9 kg/m3
2629 kPa | 731.9 kg/m3
2700 kPa | 731.8 kg/m3
2720 kPa | 732.1 kg/m3
2731 kPa | 732 kg/m3
2742 kPa | 732 kg/m3
2755 kPa | 732 kg/m3
2770 kPa | 732 kg/m3
2785 kPa | 731.9 kg/m3
2795 kPa | 732 kg/m3
2813 kPa | 732 kg/m3
2824 kPa | 732 kg/m3
2834 kPa | 732 kg/m3
2851 kPa | 732.1 kg/m3
2884 kPa | 732 kg/m3
2939 kPa | 732.1 kg/m3
3009 kPa | 732.1 kg/m3
3026 kPa | 732.2 kg/m3
3040 kPa | 732.2 kg/m3
3052 kPa | 732.1 kg/m3
3064 kPa | 732.2 kg/m3
3077 kPa | 732.2 kg/m3
3094 kPa | 732.3 kg/m3
3109 kPa | 732.1 kg/m3
3122 kPa | 732.3 kg/m3
3136 kPa | 732.1 kg/m3
3147 kPa | 732.3 kg/m3
3155 kPa | 732.2 kg/m3
3188 kPa | 732.2 kg/m3
3283 kPa | 732.4 kg/m3
3344 kPa | 732.4 kg/m3
3442 kPa | 732.5 kg/m3
3479 kPa | 732.4 kg/m3
3494 kPa | 732.5 kg/m3
3506 kPa | 732.5 kg/m3
3529 kPa | 732.6 kg/m3
3551 kPa | 732.6 kg/m3
3564 kPa | 732.6 kg/m3
3584 kPa | 732.6 kg/m3
3599 kPa | 732.7 kg/m3
3619 kPa | 732.7 kg/m3
3635 kPa | 732.7 kg/m3
3653 kPa | 732.6 kg/m3
3672 kPa | 732.8 kg/m3
3690 kPa | 732.6 kg/m3
3705 kPa | 732.8 kg/m3
3719 kPa | 732.7 kg/m3
3735 kPa | 732.8 kg/m3
3748 kPa | 732.6 kg/m3
3764 kPa | 732.8 kg/m3
3781 kPa | 732.7 kg/m3
3793 kPa | 732.9 kg/m3
3810 kPa | 732.7 kg/m3
3829 kPa | 732.9 kg/m3
3842 kPa | 732.8 kg/m3
3861 kPa | 732.8 kg/m3
3881 kPa | 732.8 kg/m3
3894 kPa | 732.8 kg/m3
3916 kPa | 732.9 kg/m3
3929 kPa | 732.9 kg/m3
3952 kPa | 732.9 kg/m3
3964 kPa | 732.9 kg/m3
3984 kPa | 733 kg/m3
4001 kPa | 733 kg/m3
4012 kPa | 733 kg/m3
4029 kPa | 733 kg/m3
4046 kPa | 733 kg/m3
4060 kPa | 733 kg/m3
4084 kPa | 733 kg/m3
4099 kPa | 733 kg/m3
4117 kPa | 733 kg/m3
4130 kPa | 733.1 kg/m3
4150 kPa | 733.2 kg/m3
4166 kPa | 733 kg/m3
4190 kPa | 733 kg/m3
4211 kPa | 733 kg/m3
4226 kPa | 733.1 kg/m3
4247 kPa | 733.1 kg/m3
4269 kPa | 733.3 kg/m3
4281 kPa | 733.1 kg/m3
4302 kPa | 733.2 kg/m3
4323 kPa | 733.1 kg/m3
4338 kPa | 733.2 kg/m3
4361 kPa | 733.3 kg/m3
4382 kPa | 733.2 kg/m3
4401 kPa | 733.2 kg/m3
4420 kPa | 733.3 kg/m3
4439 kPa | 733.3 kg/m3
4450 kPa | 733.5 kg/m3
4464 kPa | 733.3 kg/m3
4478 kPa | 733.3 kg/m3
4500 kPa | 733.3 kg/m3
4518 kPa | 733.3 kg/m3
4530 kPa | 733.3 kg/m3
4544 kPa | 733.3 kg/m3
4558 kPa | 733.4 kg/m3
4571 kPa | 733.3 kg/m3
4586 kPa | 733.3 kg/m3
4595 kPa | 733.3 kg/m3
4616 kPa | 733.5 kg/m3
4637 kPa | 733.4 kg/m3
4652 kPa | 733.4 kg/m3
4671 kPa | 733.3 kg/m3
4685 kPa | 733.6 kg/m3
4705 kPa | 733.4 kg/m3
4728 kPa | 733.4 kg/m3
4742 kPa | 733.5 kg/m3
4760 kPa | 733.5 kg/m3
4773 kPa | 733.5 kg/m3
4795 kPa | 733.7 kg/m3
4810 kPa | 733.6 kg/m3
4831 kPa | 733.5 kg/m3
4849 kPa | 733.6 kg/m3
4877 kPa | 733.5 kg/m3
4901 kPa | 733.6 kg/m3
4914 kPa | 733.7 kg/m3
4937 kPa | 733.6 kg/m3
4953 kPa | 733.7 kg/m3
4976 kPa | 733.7 kg/m3
4996 kPa | 733.6 kg/m3
5014 kPa | 733.8 kg/m3
5029 kPa | 733.7 kg/m3
5053 kPa | 733.7 kg/m3
5076 kPa | 733.8 kg/m3
5091 kPa | 733.8 kg/m3
5103 kPa | 733.9 kg/m3
5127 kPa | 733.8 kg/m3
5148 kPa | 733.7 kg/m3
5166 kPa | 733.9 kg/m3
5187 kPa | 733.8 kg/m3
5202 kPa | 733.8 kg/m3
5220 kPa | 733.9 kg/m3
5234 kPa | 733.8 kg/m3
5248 kPa | 733.9 kg/m3
5264 kPa | 733.9 kg/m3
5278 kPa | 733.9 kg/m3
5297 kPa | 733.8 kg/m3
5299 kPa | 733.9 kg/m3
5304 kPa | 733.9 kg/m3
5315 kPa | 733.9 kg/m3
5319 kPa | 733.9 kg/m3
5329 kPa | 733.9 kg/m3
5335 kPa | 734 kg/m3
5346 kPa | 734 kg/m3
5352 kPa | 734 kg/m3
5362 kPa | 733.9 kg/m3
5375 kPa | 734 kg/m3
5393 kPa | 733.9 kg/m3
5395 kPa | 734 kg/m3
5409 kPa | 733.9 kg/m3
5422 kPa | 734 kg/m3
5424 kPa | 734.1 kg/m3
5440 kPa | 734 kg/m3
5459 kPa | 734 kg/m3
5475 kPa | 734.1 kg/m3
5492 kPa | 734 kg/m3
5508 kPa | 734 kg/m3
5522 kPa | 734 kg/m3
5541 kPa | 734.1 kg/m3
5556 kPa | 734.1 kg/m3
5570 kPa | 734.1 kg/m3
5592 kPa | 734.1 kg/m3
5612 kPa | 734.2 kg/m3
5626 kPa | 734.2 kg/m3
5643 kPa | 734.2 kg/m3
5656 kPa | 734.2 kg/m3
5676 kPa | 734.3 kg/m3
5696 kPa | 734.2 kg/m3
5714 kPa | 734.1 kg/m3
5734 kPa | 734.3 kg/m3
5753 kPa | 734.2 kg/m3
5771 kPa | 734.3 kg/m3
5792 kPa | 734.3 kg/m3
5808 kPa | 734.4 kg/m3
5824 kPa | 734.4 kg/m3
5839 kPa | 734.4 kg/m3
5858 kPa | 734.4 kg/m3
5880 kPa | 734.4 kg/m3
5902 kPa | 734.3 kg/m3
5918 kPa | 734.4 kg/m3
5937 kPa | 734.3 kg/m3
5957 kPa | 734.4 kg/m3
5977 kPa | 734.5 kg/m3
5992 kPa | 734.4 kg/m3
6012 kPa | 734.5 kg/m3
6035 kPa | 734.5 kg/m3
6050 kPa | 734.6 kg/m3
6077 kPa | 734.6 kg/m3
6097 kPa | 734.6 kg/m3
6112 kPa | 734.6 kg/m3
6135 kPa | 734.5 kg/m3
6161 kPa | 734.6 kg/m3
6198 kPa | 734.7 kg/m3
6243 kPa | 734.6 kg/m3
6254 kPa | 734.6 kg/m3
6257 kPa | 734.6 kg/m3
6259 kPa | 734.7 kg/m3
6262 kPa | 734.6 kg/m3
6265 kPa | 734.6 kg/m3
6266 kPa | 734.7 kg/m3 and 734.6 kg/m3
6267 kPa | 734.6 kg/m3
6268 kPa | 734.6 kg/m3
6278 kPa | 734.7 kg/m3
6299 kPa | 734.6 kg/m3
6320 kPa | 734.6 kg/m3
6344 kPa | 734.7 kg/m3
6362 kPa | 734.7 kg/m3
6383 kPa | 734.7 kg/m3
6411 kPa | 734.9 kg/m3
6436 kPa | 734.7 kg/m3
6451 kPa | 734.7 kg/m3
6476 kPa | 734.8 kg/m3
6502 kPa | 734.9 kg/m3
6521 kPa | 734.8 kg/m3
6550 kPa | 734.8 kg/m3
6573 kPa | 734.8 kg/m3
6596 kPa | 734.8 kg/m3
6622 kPa | 734.9 kg/m3
6642 kPa | 734.8 kg/m3
6665 kPa | 735 kg/m3
6692 kPa | 734.9 kg/m3
6725 kPa | 735 kg/m3
